The nature of assay [1]: DPPH free radical scavenging activity. The settings on record: n = 3; read-out: IC50, DPPH free radical scavenging capacity. As for the experimental part:
According to the references of Lee et al., DPPH free radical scavenging capacity was measured. […] In room temperature and a dark environment, the reaction lasted 30 min. […] Each sample was examined in three times and averaged.

Assay [2] concerns the target T1, mushroom tyrosinase (Agaricus bisporus, UniProt C7FF04). Put plainly: Determination of the inhibition type and inhibition constant (Lineweaver–Burk plots). Format: biochemical. The following applies: for inhibition type: Lineweaver–Burk double-reciprocal plots, tyrosinase diphenolase; for KIS (inhibitor binding with enzyme–substrate complex): plot of vertical intercept (1/Vmapp) versus inhibitor concentration, oxidation of L-DOPA. Here is the method:
By Lineweaver–Burk plot, the inhibition type was assayed. The inhibition constant was assayed by the second plots of the apparent Km/Vmapp or 1/Vmapp versus the concentration of the inhibitor.

A short description of assay [3]: Superoxide free radical scavenging activity (pyrogallol self-oxidation). The settings on record: n = 3; read-out: IC50, superoxide free radical scavenging capacity. Here is the method:
According to the references of Shen et al., superoxide free radical scavenging capacity was measured using Varioskan Flash multifunction microplate reader (Thermo scientific, USA) and 96 wells plates. Each well was added 264 μL PBS buffer (pH = 8.2), 12 μL samples of different concentrations, 25 °C for 10 min. Then 24 μL of 1.25 mmoL/L pyrogallol solution was added and shaken 3 s quickly. The blank group is ethanol. Absorbance values were measured every 30 s. The reaction lasted 5 min in 37 °C. The wavelength used was 320 nm. Each sample was measured in triplicate and averaged. The slope is the self-oxidation rate of pyrogallol. The lower slope indicated the better superoxide free radicals scavenging capacity. Each sample was examined in three times and averaged. The inhibitory rate was examined according to the formula:5 Superoxidefreeradicalscavengingactivity%=SC-SS/SC×100% where SC is the slope value without samples and SS is the slope value with samples.

Assay [4] deals with T1, mushroom tyrosinase. Briefly: Determination of the inhibition type and inhibition constant (Lineweaver–Burk plots). Type of assay: biochemical. The following applies: plots of enzyme activity versus enzyme concentration, oxidation of L-DOPA.
In assay [5] the test system is lipid peroxidation in rat liver mitochondria. Briefly: Lipid peroxidation assay in liver mitochondria in vitro (Fe2+/vitamin C). Format: biochemical, Sprague–Dawley (SD) rats. The following applies: n = 3, read-out: IC50, inhibiting lipid peroxidation. Here is the method: Using the diagnostic kits from Biyuntian (Shanghai, China), liver mitochondria were obtained. The liver mitochondria from Sprague–Dawley (SD) rats were obtained, according to the references of Zuo et al.. In the tubes, 1 mL of mitochondria liquid, 0.5 mL of antioxidant solution, 0.25 mL of 1 mM Vitamin C, and 0.25 mL of 0.1 mM Fe^2+ were added in turn. The positive control group contains 0.5 mL of 0.05 M PBS buffer, instead of the antioxidant solution. The blank group was added 1 mL of mitochondrial liquid and 1 mL of 0.05 M PBS buffer. […] The test tubes were placed in the water for 30 min at 95 °C, then centrifuged for 10 min at 1372g. The wavelength used was 532 nm. Each sample was examined in three times and averaged.

Assay [6] is described as follows: ABTS free radical scavenging activity. The settings on record: n = 3; read-out: IC50, ABTS free radical scavenging capacity. Here is the method:
According to the references of Wan et al., ABTS free radical scavenging capacity was measured. […] ABTS ^+ was produced by reacting 2.45 mmol/L potassium persulfate (K2S2O8) with the ABTS stock solution. The reaction lasted 12–16 h at room temperature in the dark. […] Samples (0.5 mL) were added to ABTS^+ (5 mL) for 6 min. The control group contains 0.5 mL of ethanol and 5 mL of ABTS^+ solution. Each sample was examined in three times and averaged.

Assay [7] in a line: Hydroxyl free radical scavenging activity. The settings on record: n = 3; read-out: IC50, hydroxyl free radical scavenging capacity.
Experimental: In the tube, 0.2 mL of samples, 1 mL of PBS buffer (pH = 7.4),0.2 mL of 5 mmol/L phenanthroline, 0.2 mL of 7.5 mmol/L FeSO4, 0.2 mL of 0.05% H2O2, 3.2 mL of ethanol were added in turn for 20 min in 37 °C. The wavelength used was 536 nm. Each sample was examined in three times and averaged. The hydroxyl free radical scavenging activity was examined according to the formula:4 Hydroxylfreeradicalscavengingactivity%=AC-AS/AC×100% where AS is the absorbance value with samples and AC is the absorbance value without samples.
Details of assay [8]: method as in Xu [31]. The settings on record: ref Xu [31]; cited from earlier work.
On the set-up of assay [9]: method as in Xu [31]. The settings on record: ref Xu [31]; cited from earlier work. The source holds these as a separate data set.
Details of assay [10]: method as in Xu [31]. The settings on record: ref Xu [31]; cited from earlier work. This is another data set of the same source.
For assay [11] the following is noted: discussion; no reference given; cited from earlier work.
For assay [12] the following is noted: discussion; no reference given; cited from earlier work. The source holds these as a separate data set.

For orientation: IC50 means the concentration needed to halve the response being measured.

T1 sequence (C7FF04 2-392): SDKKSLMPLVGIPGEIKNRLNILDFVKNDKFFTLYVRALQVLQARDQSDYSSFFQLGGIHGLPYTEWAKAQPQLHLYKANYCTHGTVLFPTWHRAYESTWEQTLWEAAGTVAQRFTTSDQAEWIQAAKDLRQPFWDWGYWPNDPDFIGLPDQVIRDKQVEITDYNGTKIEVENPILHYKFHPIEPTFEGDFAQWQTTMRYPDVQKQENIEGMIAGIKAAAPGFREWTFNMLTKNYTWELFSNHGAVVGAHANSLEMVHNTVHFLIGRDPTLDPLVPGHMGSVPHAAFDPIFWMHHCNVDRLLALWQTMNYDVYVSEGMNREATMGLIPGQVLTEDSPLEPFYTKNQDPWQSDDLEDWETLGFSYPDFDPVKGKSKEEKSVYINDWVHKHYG
T1 sequence (G1K3P4 1-150 partner): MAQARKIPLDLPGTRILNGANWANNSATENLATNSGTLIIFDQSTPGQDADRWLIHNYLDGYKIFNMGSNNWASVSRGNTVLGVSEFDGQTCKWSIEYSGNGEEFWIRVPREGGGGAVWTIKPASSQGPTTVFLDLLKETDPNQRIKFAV

As for `O=c1cc(-c2ccccc2)oc2cc(O)c(O)c(O)c12` [Baicalein], the IC50 in [1] came to 58.6 µM; in assay [3] it was 16.1 µM; in [5], 12.5 µM; in assay [6], 9.09 µM; in assay [7], 11.6 µM. The inhibition type entry against mushroom tyrosinase [2] was “same inhibitor type as shikonin”. Also, at mushroom tyrosinase [2], the “KIS (inhibitor binding with enzyme–substrate complex)” value is 38.4 µM. Further, on mushroom tyrosinase [4], the “inhibitory mechanism (reversibility)” value is “reversible inhibitors”.

`O=C1c2c(O)cc(O)cc2O[C@H](c2cc(O)c(O)c(O)c2)[C@H]1O` [Dihydromyricetin]: the “scavenging capacity of hydroxyl radical (·OH)” value in [8] was 83.9%. Besides, the IC50 stood at 12.4 µM in assay [1]; 7.6 µM in [3]; 6.25 µM in [5]; 3.41 µM in [6]; 4.2 µM in [7]. Besides, at mushroom tyrosinase [2], the inhibition type entry is reported as “same inhibitor type as shikonin”. Also, the “KIS (inhibitor binding with enzyme–substrate complex)” value at mushroom tyrosinase [2] worked out at 23.6 µM. The “scavenging capacity of superoxide radical (O2·)” value in assay [9] is given as 90.0%. The “inhibitory mechanism (reversibility)” value on mushroom tyrosinase [4] is “reversible inhibitors”. In addition, the “scavenging capacity of alkane radical (ROO·)” value in [10] is reported as 63.9%.

As to `O=C(/C=C/c1ccc(O)c(O)c1)O[C@H](Cc1ccc(O)c(O)c1)C(=O)O` [Rosmarinic acid], the 50% inhibitory concentration (IC50) in assay [1] came out at 28.5 µM; in assay [3], 12.3 µM; in assay [5] it was 8.33 µM; in assay [6] it was 6.82 µM; in assay [7], 8.3 µM. The inhibition type entry on mushroom tyrosinase [2] is “same inhibitor type as shikonin”. In addition, the “KIS (inhibitor binding with enzyme–substrate complex)” value on mushroom tyrosinase [2] was 29.8 µM. Besides, the “inhibitory mechanism (reversibility)” value at mushroom tyrosinase [4] is recorded as “reversible inhibitors”.

Take `CC(C)=CC[C@@H](O)C1=CC(=O)c2c(O)ccc(O)c2C1=O` [Shikonin]: the IC50 in assay [1] is 83.2 µM; in [3], 31.5 µM; in assay [5] it was 16.7 µM; in [6], 27.3 µM; in assay [7], 18.3 µM. Besides, at mushroom tyrosinase [2], the inhibition type entry is listed as “competitive–uncompetitive mixed type inhibitor”. The “KIS (Fig. 3c)” value on mushroom tyrosinase [2] (plot of intercept versus concentration of shikonin) came out at 48.6 µmol/L. In addition, the “KIS (inhibitor binding with enzyme–substrate complex)” value at mushroom tyrosinase [2] came out at 48.6 µM. Moreover, the reducing ability in [11] is 0.431%. Also, at mushroom tyrosinase [4], the “inhibitory mechanism (reversibility)” value was “reversible inhibitor”.

As for `CC(C)=CCCC1=CC(=O)c2c(O)ccc(O)c2C1=O` [deoxy-shikonin], the “maximum inhibition, DPPH-radical scavenging assay” value in assay [12] is on record as 0.440%.

For the compound Isoeugenol, the IC50 came to 102 µM in assay [1]; 38.2 µM in assay [3]; 25.1 µM in [5]; 36.4 µM in assay [6]; 32.5 µM in [7]. Also, the inhibition type result at mushroom tyrosinase [2] is reported as “same inhibitor type as shikonin”. Also, the “KIS (inhibitor binding with enzyme–substrate complex)” value at mushroom tyrosinase [2] came out at 64.7 µM. For the same compound, the “inhibitory mechanism (reversibility)” value against mushroom tyrosinase [4] was “reversible inhibitors”.
